Consider 9 compounds from US6693189B2, “Materials and method for treating or preventing pathogenic fungal infection” (Ariad Gene Therapeutics, Inc., priority 1996, dated 2004).

The target of one experiment is human FKBP12 (Homo sapiens, UniProt P62942). Kind of experiment: competitive fluorescence polarization (FP) FKBP binding assay. The following applies: for fold loss in affinity (vs rapamycin) / fold loss in affinity (cf rapamycin): =IC50/IC50 of rapamycin; for fold loss in affinity (vs rapamycin): C24 oximes; for fold loss in affinity (cf rapamycin): C7 rapalogs. (In general: In fluorescence polarisation assays a small probe gives low polarisation when free and higher when bound to something large.)

Experiment [1] deals with Candida albicans clinical isolates. Nature of the experiment: broth macrodilution antifungal assay, C. albicans. The settings on record: ratio of relative antifungal to relative immunosuppressive activity. It counts as cell-based.
In experiment [2] the test system is Cryptococcus neoformans clinical isolates. Kind of experiment: broth macrodilution antifungal assay, Cryptococcus neoformans. The format is cell-based. The settings on record: ratio of relative antifungal to relative immunosuppressive activity.
The test system of experiment [3] is Aspergillus fumigatus clinical isolates. Kind of experiment: broth macrodilution antifungal assay, Aspergillus fumigatus. The format is cell-based. The settings on record: III = Asp fumigatus; ratio of relative antifungal to relative immunosuppressive activity.
Setting [4] is: read-out: FKBP wt FP binding assay IC50, rapamycin C24 oximes, competition with fluoresceinated FK506 probe AP1491.

Like-named read-outs stand apart in the source and are kept apart here.

human FKBP12, sequence (P62942 whole entry): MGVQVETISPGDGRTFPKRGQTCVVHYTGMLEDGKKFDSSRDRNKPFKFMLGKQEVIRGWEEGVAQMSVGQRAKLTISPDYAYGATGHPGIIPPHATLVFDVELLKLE
Description for human FKBP12: Serial 10-fold dilutions of each analog were prepared in 100% ethanol in glass vials and stored on ice. All other manipulations were performed at room temperature. […] Finally, a probe solution was prepared containing 10 nM AP1491 in 0.1% ethanol/FP buffer, and 100 μl added to each well with mixing.
The plates were stored covered in the dark for approximately 30 min to permit equilibration and then the fluorescence polarization of the sample in each well read on a Jolley FPM-2 FP plate reader (Jolley Consulting and Research, Inc., Grayslake, Ill.) in accordance with the manufacturer's recommendations. The mean polarization (mP units) for each competitor concentration was usually converted to % total binding by reference to the control values and plotted (y) vs. log molar final concentration of competitor (x). Non-linear least square analysis was used to fit the curve and extract the IC50 using the following equation:
y=M1+(M4−M1)/(1+exp(M2*(M3−x)))
where M3 is the IC50. For incomplete curves the IC50 was determined by interpolation.

For the compound `CCON=C1CC(C(C)CC2CCC(O)C(OC)C2)OC(=O)C2CCCCN2C(=O)C(=O)C2(O)OC(CCC2C)CC(OC)C(C)=CC=CC=CC(C)CC(C)C(=O)C(OC)C(O)C(C)=CC1C` (stereo not drawn) [Compound 7, Rapamycin (E and Z)-24-(O-ethyloxime)], on human FKBP12, the “fold loss in affinity (vs rapamycin)” value stood at 1287. The concentration for half-maximal inhibition (IC50) at human FKBP12 (setting [4]) amounted to 2.96 µM.

Take `CO[C@H]1C[C@@H]2CC[C@@H](C)[C@@](O)(O2)C(=O)C(=O)N2CCCC[C@H]2C(=O)O[C@H]([C@H](C)C[C@@H]2CC[C@@H](O)[C@H](OC)C2)C/C(=N/OCc2ccccc2)[C@H](C)/C=C(\C)[C@@H](O)[C@@H](OC)C(=O)[C@H](C)C[C@H](C)/C=C/C=C/C=C/1C` [Compound 11, Rapamycin (E and Z)-24-(O-benzyloxime)]: at human FKBP12, the IC50 stood at 8.34 µM and the “fold loss in affinity (vs rapamycin)” value was 3627.

`COC1CC2CCC(C)C(O)(O2)C(=O)C(=O)N2CCCCC2C(=O)OC(C(C)CC2CCC(O)C(OC)C2)CC(=NOCc2ccccc2)C(C)C=C(C)C(O)C(OC)C(=O)C(C)CC(C)C=CC=CC=C1C` (stereo not drawn) [Compound 12, Rapamycin (E and Z)-24-(O-benzyloxime)]: on human FKBP12, the “fold loss in affinity (vs rapamycin)” value came to 616. The IC50 at human FKBP12 (setting [4]) turned out to be 1.42 µM.

Consider `COC1CC2CCC(C)C(O)(O2)C(=O)C(=O)N2CCCCC2C(=O)OC(C(C)CC2CCC(O)C(OC)C2)CC(=NOC(C)(C)C)C(C)C=C(C)C(O)C(OC)C(=O)C(C)CC(C)C=CC=CC=C1C` (stereo not drawn) [Compound 19], for which the “fold loss in affinity (vs rapamycin)” value on human FKBP12 was above 13043. Further, the IC50 on human FKBP12 (setting [4]) was above 30 µM.

Consider `CCOC1C[C@@H]2CC[C@@H](C)[C@@](O)(O2)C(=O)C(=O)N2CCCC[C@H]2C(=O)O[C@H]([C@H](C)C[C@@H]2CC[C@@H](O)[C@H](OC)C2)CC(=O)[C@H](C)/C=C(\C)[C@@H](O)[C@@H](OC)C(=O)[C@H](C)C[C@H](C)/C=C/C=C/C=C/1C` (stereo partly drawn) [Compound 27], for which the “fold loss in affinity (cf rapamycin)” value at human FKBP12 stood at 1.1.

As to `CCOC1C[C@@H]2CC[C@@H](C)[C@@](O)(O2)C(=O)C(=O)N2CCCC[C@H]2C(=O)O[C@H]([C@H](C)C[C@@H]2CC[C@@H](O)[C@H](OC)C2)CC(=O)[C@H](C)/C=C(\C)[C@@H](O)[C@@H](OC)C(=O)[C@H](C)C[C@H](C)/C=C/C=C/C=C/1C` (stereo partly drawn) [Compound 28], the “fold loss in affinity (cf rapamycin)” value on human FKBP12 is on record as 1.6.

Take `COC1CC(CC(C)C2CC(=O)C(C)C=C(C)C(O)C(OC)C(=O)C(C)CC(C)C=CC=CC=C(C)C(c3ccc(C)s3)CC3CCC(C)C(O)(O3)C(=O)C(=O)N3CCCCC3C(=O)O2)CCC1O` (stereo not drawn) [Compound 36]: the “fold loss in affinity (cf rapamycin)” value on human FKBP12 came out at 1.6.

In the case of `COC1CC(CC(C)C2CC(=O)C(C)C=C(C)C(O)C(OC)C(=O)C(C)CC(C)C=CC=CC=C(C)C(c3ccc(C)s3)CC3CCC(C)C(O)(O3)C(=O)C(=O)N3CCCCC3C(=O)O2)CCC1O` (stereo not drawn) [Compound 37], the “fold loss in affinity (cf rapamycin)” value at human FKBP12 was 1.9.

As for `CO[C@H]1C[C@@H]2CC[C@@H](C)[C@@](O)(O2)C(=O)C(=O)N2CCCC[C@H]2C(=O)O[C@H]([C@H](C)C[C@@H]2CC[C@@H](O)[C@H](OC)C2)CC(=O)[C@H](C)/C=C(\C)[C@@H](O)[C@@H](OC)C(=O)[C@H](C)C[C@H](C)/C=C/C=C/C=C/1C` [rapamycin, Rapamycin], in experiment [1], the “AF/IS I” value turned out to be 1. Also, the “AF/IS II” value in experiment [2] was 1. In addition, in experiment [3], the “AF/IS III” value is 1.

The IC50 is the midpoint of a concentration-inhibition curve.
